Results published in US7863247B1, “Prevention of fetal alcohol syndrome and neuronal cell death with ADNF polypeptides” (Ramot-University Authority for Applied Research and …, priority 2000, dated 2011).
No end group written: not given here.

Legend:
[1] = tested on: C57-B16J mice exposed to alcohol in utero; assay: Fetal death (% demises at E18) in the FAS model; format: in vivo; settings: pretreatment 30 min prior to alcohol on E8 (NAP 20 μg; NAP 20 μg+SAL 20 μg; VIP 1 μg); counted at E18
Experimental: (§1) A published well-delineated model for FAS was followed (Webster et al., Neurobehav Tox, 2:227-34 (1980)). Animals were injected (intraperitoneal) on E8 with 25% ethyl alcohol in saline (v/v) or vehicle alone at 0.030 ml/g body weight at 0900 on E8. Pretreatment with VIP and ADNF polypeptides (e.g., NAP, SAL, NAP+SAL) were given 30 min prior to alcohol. Post-treatment with NAP+SAL was given at 1 or 3 h after alcohol. Dosages of the neuropeptides were NAP (20 μg and 40 μg), SAL (20 μg), NAP (20 μg)+SAL (20 μg); VIP (1 μg). NAP+SAL without alcohol was also studied. NAP was diluted in 50 μl DMSO and diluted in filtered Dulbecco's phosphate buffered saline (DPBS). SAL was dissolved and diluted in filtered DPBS. VIP was dissolved in 20 μl glacial acetic acid and diluted in HPLC water and DPBS. […]
(§2) At E18 (embryonic gestation day 18), the number of live and demised fetuses was determined. […] The mean fetal weights were determined for each mother, and this was used for statistical analysis.
(§3) The mean litter pup and fetal brain weight was calculated, with the litter mean used for all statistical analysis. Percent demises were calculated by dividing the number of demises by the total number of fetuses (live plus demises). […]

[2] = tested on: C57-B16J mice exposed to alcohol in utero; assay: Fetal weights at E18 in the FAS model; format: in vivo
Experimental: A published well-delineated model for FAS was followed (Webster et al., Neurobehav Tox, 2:227-34 (1980)). Animals were injected (intraperitoneal) on E8 with 25% ethyl alcohol in saline (v/v) or vehicle alone at 0.030 ml/g body weight at 0900 on E8. Pretreatment with VIP and ADNF polypeptides (e.g., NAP, SAL, NAP+SAL) were given 30 min prior to alcohol. Post-treatment with NAP+SAL was given at 1 or 3 h after alcohol. Dosages of the neuropeptides were NAP (20 μg and 40 μg), SAL (20 μg), NAP (20 μg)+SAL (20 μg); VIP (1 μg). NAP+SAL without alcohol was also studied. NAP was diluted in 50 μl DMSO and diluted in filtered Dulbecco's phosphate buffered saline (DPBS). SAL was dissolved and diluted in filtered DPBS. VIP was dissolved in 20 μl glacial acetic acid and diluted in HPLC water and DPBS. Since the animals receiving alcohol were incapacitated for approximately 6 hours following injection, food and water were withheld from all groups for the initial 6 hours, to allow accurate assessment of fetal weights.
At E18 (embryonic gestation day 18), the number of live and demised fetuses was determined. Fetal weights and fetal brain weights were obtained for each fetus in the litter. The mean fetal weights were determined for each mother, and this was used for statistical analysis.
The mean litter pup and fetal brain weight was calculated, with the litter mean used for all statistical analysis. Percent demises were calculated by dividing the number of demises by the total number of fetuses (live plus demises). Statistical analysis included ANOVA for continuous variables, Mann-Whitney U for nonparametic data, Chi square for categorical variables or Fisher's exact test where appropriate [Statview 4.5 (Abacus Concepts, Inc., Berkeley, Calif.)] with p<0.05 considered significant. Results are presented as mean±standard error unless specified.

[3] = tested on: C57-B16J mice exposed to alcohol in utero; assay: Fetal brain weights at E18 in the FAS model; format: in vivo; settings: pretreatment 30 min prior to alcohol on E8 (SAL 20 μg; NAP 20 μg+SAL 20 μg)
Experimental: as §1, §2, §3

[4] = Bioavailability of 3H-NAP to embryos (size exclusion chromatography); format: in vivo, mice
Experimental: FIG. 7a and FIG. 7b illustrate chromatographs of radiolabel (^3H) present in 1 ml fractions from a size exclusion column (Superdex Peptide HR 10/30, Pharmacia Biotech). ^3H-NAP (2 μCi/20 μg) was administered intraperitoneally to pregnant mice at E8. Intact NAP was present in fractions 15-17 denoted by shaded grey bar on graphs. FIG. 7a illustrates a pooled sample of three embryos (different litters) after a thirty minute exposure to ^3H-NAP. Based on this accumulation of labeled peptide, approximately 1 pmoles of NAP was found in the embryo, with an estimated concentration of 10 nM, well within the therapeutic range of NAP. FIG. 7b illustrates a pooled sample of three embryos (different litters) after a sixty minute exposure to ^3H-NAP.
The bioavailability of NAP to embryos was assessed by intraperitoneal administration of ^3H-NAP (2 μCi/20 μg) to pregnant mice at E8. […] Based on this accumulation of labeled peptide, approximately […] of NAP was found in the embryo, with an estimated concentration of 10 nM, well within the therapeutic range of NAP.

[5] = pretreatment 30 min prior to alcohol on E8 (NAP 20 μg; SAL 20 μg; NAP 20 μg+SAL 20 μg; VIP 1 μg)

Substance	percentage of fetal demises [1]	fetal weights (alcohol-induced growth restriction) [2, 5]	fetal brain weights (alcohol-induced microcephaly) [3]	estimated concentration of NAP in the embryo ([4]; 3H-NAP 2 μCi/20 μg intraperitoneal at E8, 30 min) [nM]	radioactivity recovered in the embryo co-migrating with intact NAP ([4]; 3H-NAP 2 μCi/20 μg intraperitoneal to pregnant mice at E8, 30 min after administration) [%]	fetal weights (alcohol-induced growth restriction) ([2]; pretreatment with a double dosage of NAP (40 μg))
vasoactive intestinal peptide (HSDAVFTDNYTRLRKQMAVKKYLNSILN; ends and bridges not checked; UniProt P01282 125-152, looked up) [VIP, neuropeptide that is a regulator of early postimplantation mouse embryonic growth, reference compound]	did not reverse the fetal death rate	improved embryonic weights; however, the effect was intermediate and not statistically significant				
SALLRSIPA		did not prevent the alcohol-induced fetal weight reduction	moderately prevented the alcohol-induced fetal brain weight reduction			
Asn-Ala-Pro-Val-Ser-Ile-Pro-Gln [NAP]	prevented the death seen with alcohol	moderately prevented the alcohol-induced growth restrictions		~10	60	moderately prevented the alcohol-induced growth restriction
